Test results: patent US20020137154A1, “Methods for improving cell growth and alcohol production during fermentation” (priority 2000, published 2002)

How the values were obtained:
Assay type in all cases: cell-based
[1] = test system: recombinant Escherichia coli KO11; assay: Batch fermentation of E. coli KO11 in Luria broth and xylose with nutrient additives: ethanol production and cell growth; conditions: LB+xylose; additive 2 g/L unless indicated
Method: Two types of media were tested: 1% CSL and Luria broth (LB). Each contained 97 g of either xylose or glucose per liter. Luria Broth consists of, per liter: 10 g Difco® Tryptone, 5 g Difco® Yeast Extract and 5 g NaCl. The 1% CSL medium consists of Corn Steep Liquor (1% w/v) plus mineral salts (mineral salts per liter: 1 g of KH2PO4. 0.5 g of K2HPO4, 3.1 g of (NH4)2SO4, 0.4 g of MgCl2·6H2), and 20 mg FeCl3·6H2O).
Luria Broth was prepared by autoclaving a 2× nutrient stock containing, per liter: 20 g Difco® Tryptone, 10 g Difo® Yeast Extract, and 10 g NaCl. Sugars (xylose or glucose) were autoclaved separately. A 1% CSL medium was prepared as follows: Commercial Corn Steep Liquor (CSL; 50% dry weight/50% water) was diluted with tap water to make a 20X stock containing 100 g dry weight of Corn Steep Liquor/L and was adjusted to pH 7.2 with NaOH (50%). After sterilization by autoclaving, the 20X CSL stock was clarified by centrifugation at 5000×g for 10 minutes. Magnesium was added as a 100× stock solution (40 g/L MgCl2·6H2O). Iron was added as a 1000× stock solution made by dissolving 20 g FeCl3·6H2O in 175 mL of HCl and adjusting to 1 L with sterile water. Nitrogen, sulfur and phosphorus were added using a 20× stock solution containing the following (per liter): 20 g of KH2PO4, 10 g of K2HPO4 and 62 g of (NH4)2SO4. Stock solutions containing minerals were sterilized separately by autoclaving. Final media was prepared by adding 750 mL of water to 1 L bottle containing 100 g of xylose or glucose.
Inocula were grown in same media used for fermentation and were prepared as follows. Three colonies from a fresh plate were used to inoculate seed cultures: 250-mL flask containing 100 mL medium. These cultures were grown with agitation (120 rpm) for 12-16 hours at 35° C. to a final OD550nm of approximately 2.0-2.5. Cells were harvested by centrifugation at 5000×g for 5 minutes, and resuspended in fresh media to an OD550nm of 0.1. The resulting suspension was distributed into 500-mL beakers containing 345 ml each of fermentation medium. Acetaldehyde was added as indicated. Batch fermentations (35° C., 100 rpm) were maintained at pH 6.5 by the automatic addition of 2N KOH. Cell mass, ethanol, and base addition (2N KOH) were recorded during 96 hours of incubation.
Equivalent amounts of distilled water were added instead of the acetaldehyde in control experiments.
Additives (e.g., as listed in Table 1) were dissolved in 5 mL di-H2O. Solutions with pH lower than 5 were neutralized to pH 6.5 with 2N KOH. Nutritional supplements were then filter-sterilized (0.45 μm filter disk) directly into the fermentation vessel containing the culture. The final concentration of all additives in the culture medium was 2 g/L unless otherwise indicated.
Cell mass was estimated by measuring OD550nm using Baush & Lomb® Spectronic 70 spectrophotometer. […] Ethanol was measured by gas chromatography using a Varian® 3400 CX gas chromatograph with 1-propanol as an internal standard.
Tables 1, 3, and 5 show time to completion of fermentation, ethanol production, and volumetric productivity of the fermentation for all concentrations of the compound and the control. Maximum ethanol production is shown in grams/liter (g/L). The ethanol yield is shown in grams of ethanol/grams of added sugar. Maximum volumetric productivity is shown in grams ethanol/(liter)(hour). The average productivity is calculated form the start of fermentation to the completion of fermentation is grams ethanol/(liter)hour).
Tables 2, 4, and 6 show the initial growth of the cells (OD taken after the first 24 hours of fermentation) and the maximum cell density (the time which culture reaches the maximum OD value).
Acetaldehyde was added to the fermentation medium at five different concentrations and time points. […] Where two additions are indicated, the first volume was added at the start of fermentation and the second was added after 8 hours of fermentation.

[2] = test system: recombinant Escherichia coli KO11; assay: Batch fermentation of E. coli KO11 in 1% CSL medium and xylose with nutrient additives: ethanol production and cell growth; conditions: 1% CSL+xylose; additive 2 g/L unless indicated
[3] = test system: recombinant Escherichia coli KO11; assay: Batch fermentation of E. coli KO11 in 1% CSL medium and glucose with nutrient additives: ethanol production and cell growth; conditions: 1% CSL+glucose; additive 2 g/L unless indicated

## N[C@@H](CCC(=O)O)C(=O)O [Glutamate, glutamate]
[1]
  Ethanol Production Maximum: 44.67 g/L
  Ethanol Production Maximum % Control: 103.69%
  Ethanol yield: 0.460 grams of ethanol/grams of added sugar
  Initial Growth (OD at 24 h) % Control: 106.21%
  Initial Growth (OD at 24 h) OD: 10.61 OD
  Maximum Cell Density % Control: 96.07%
  Maximum Cell Density OD: 10.61 OD
  Maximum Cell Density Time: 24 h
  Time to completion: 48 h
  Volumetric Productivity Average: 0.931 grams ethanol/(liter)(hour)
  Volumetric Productivity Average % Control: 103.69%
  Volumetric Productivity Maximum: 1.328 grams ethanol/(liter)(hour)
  Volumetric Productivity Maximum % Control: 115.30%
[2]
  Ethanol Production Maximum: 43.14 g/L
  Ethanol Production Maximum % Control: 143.43%
  Ethanol yield: 0.444 grams of ethanol/grams of added sugar
  Initial Growth (OD @ 24 h) % Control: 180.49%
  Initial Growth (OD @ 24 h) OD: 3.69 OD
  Maximum Cell Density % Control: 200.16%
  Maximum Cell Density OD: 5.04 OD
  Maximum Cell Density Time: 96 h
  Time to completion: 96 h
  Volumetric Productivity Average: 0.449 grams ethanol/(liter)(hour)
  Volumetric Productivity Average % Control: 143.43%
  Volumetric Productivity Maximum: 0.665 grams ethanol/(liter)(hour)
  Volumetric Productivity Maximum % Control: 180.439%
[3]
  Ethanol Production Maximum: 43.39 g/L
  Ethanol Production Maximum % Control: 117.30%
  Ethanol yield: 0.447 grams of ethanol/grams of added sugar
  Initial Growth (OD @ 24 h) % Control: 107.10%
  Initial Growth (OD @ 24 h) OD: 2.86 OD
  Maximum Cell Density % Control: 140.94%
  Maximum Cell Density OD: 3.79 OD
  Maximum Cell Density Time: 72 h
  Time to completion: 72 h
  Volumetric Productivity Average: 0.603 grams ethanol/(liter)(hour)
  Volumetric Productivity Average % Control: 156.40%
  Volumetric Productivity Maximum: 0.763 grams ethanol/(liter)(hour)
  Volumetric Productivity Maximum % Control: 148.52%
